≈ marks a conversion by molar mass, not a printed value. Where two headings read alike, the source gives them in different places.
Key:
[1] = test system: human thrombocytes; test: Inhibition of the collagen-induced aggregation of human thrombocytes in vitro; assay type: cell-based; details: for EC50: 10 min, read-out: Inhibition of thrombocyte aggregation EC 50%; for Inhibition of thrombocyte aggregation R.E. (relative effectiveness): acetylsalicylic acid = 1.00
Description: 1. Inhibition of the collagen-induced aggregation of human thrombocytes in vitro.
Thrombocyte-rich plasma is obtained by centrifuging venous citrate blood (300 g, 10 minutes duration at 4° C.). The photometric measurement of the thrombocyte aggregation is carried out with addition of MgCl2 (final concentration 10 millimoles/l) and of collagen Stago (final concentration 0.02 mg/ml) in a Born Mk 3 aggregometer. The maximum extinction change/sec is used as a measure of the aggregation.
The aggregation-inhibiting activity of the substances is tested after an incubation time of 10 minutes.
(§1) The effective doses or effective concentrations were calculated from the linear relationships between the logarithm of the dose or concentration and the logarithm of the effect, by means of regression analysis.
(§2) Acetylsalicyclic acid was used as the reference substance for the inhibition of thrombocyte aggregation and dihydralazine was used as the reference substance for the anti-hypertensive effect.

[2] = test system: narcotized rats; test: Anti-hypertensive effect on narcotized rats; assay type: in vivo, male Sprague-Dawley rats; details: for ED20: Rattus norvegicus, ip, dose at which the blood pressure falls by 20%, read-out: Lowering of blood pressure ED 20%; for ED20 / Lowering of blood pressure R.E. (relative effectiveness): rats, urethane narcosis, intraperitoneal; for anti-hypertensive effect (in words): Table 1; for Lowering of blood pressure R.E. (relative effectiveness): dihydralazine = 1.00; for anti-hypertensive power relative to dihydralazine: times more powerful than dihydralazine
Description: 3. Anti-hypertensive effect on narcotized rats.
To test the anti-hypertensive effect, the substances are administered intraperitoneally to groups of 3-5 male Sprague-Dawley rats weighing 240-280 g, under urethane narcosis ([…] given intraperitoneally). The measurement of the blood pressure in the carotid artery is carried out by means of Statham transducers. The ED 20% is determined as the dose which lowers the mean carotid blood pressure by 20%.
as §1, §2

[3] = test system: spontaneously hypertonic rats; test: Anti-hypertensive effect on spontaneously hypertonic rats; assay type: in vivo, male spontaneously hypertonic Okamoto rats; details: for ED20: Rattus norvegicus, 2 hours, dose which lowers the blood pressure by 20% compared to the control group, read-out: Anti-hypertensive effect ED 20%; for ED20 / Anti-hypertensive effect R.E. (relative effectiveness): spontaneously hypertonic rats, oral; for Anti-hypertensive effect R.E. (relative effectiveness): dihydralazine 1.0
Description: 4. Anti-hypertensive effect on spontaneously hypertonic rats.
The substances are administered orally to groups of 4-8 male spontaneously hypertonic Okamoto rats weighing 270-340 g.
Before, and 2 hours after, the administration, the systolic blood pressure is measured non-surgically by means of piezo-electric crystal sensors.
The ED 20% is determined as the dose which lowers the systolic pressure by 20%, taking into account the values found with untreated control animals.
as §1, §2

[4] = Toxicity (LD 50), mice, intraperitoneal administration; assay type: in vivo; details: mouse, in vivo, ip; mice, intraperitoneal administration
Excerpt: (§3) ^(3) Mice. Intraperitoneal administration.

[5] = test system: rat thrombocytes; test: Inhibition of the collagen-induced aggregation of rat thrombocytes ex vivo; assay type: in vivo, male Sprague-Dawley rats; details: for ED33: Rattus norvegicus, read-out: Inhibition of thrombocyte aggregation ED 33%; for Inhibition of thrombocyte aggregation R.E. (relative effectiveness): acetylsalicylic acid 1.0
Description: 2. Inhibition of the collagen-induced aggregation of rat thrombocytes ex vivo.
The substances are administered orally to groups of 10-15 male Sprague-Dawley rats weighing 200-250 g. 2-4 hours after administration, blood is taken under ether narcosis and thrombocyte-rich plasma is obtained by centrifuging. The aggregation after addition of collagen is measured as indicated above.
as §1, §2

[6] = test system: Mice; test: Toxicity (LD 50), mice, intraperitoneal administration; assay type: in vivo; details: compared with acetylsalicylic acid and dihydralazine; Table 2
Excerpt: as §3

[7] = human thrombocytes, in vitro, collagen 0.02 mg/ml, 10 minutes incubation, concentration which inhibits collagen-induced aggregation by 50%

SMILES	EC50 [1, 7] [µg/mL]	Inhibition of thrombocyte aggregation R.E. (relative effectiveness) ([1]; human thrombocytes, in vitro)	ED20 [2] [mg/kg]	anti-hypertensive effect (in words) [2]	Lowering of blood pressure R.E. (relative effectiveness) [2]	other results
O=C1CCC(c2ccc(NC(=O)CCCl)cc2)=NN1 [Example 6, 6-[p-(3-chloropropionylamino)-phenyl]-4,5-dihydropyridaz-3-one]	0.35 (≈ 1.25 µM)	1,410	10	slight	0.03	inhibition of thrombocyte aggregation (in words) ([1]; human thrombocytes, collagen-induced, Table 1): highly specific thrombocyte aggregation-inhibiting effect
NNc1nnc(NN)c2ccccc12 [Dihydralazine, dihydralazine, reference compound]	149 (≈ 783 µM)	3.32	0.34		1.00	ED20 [3]: 6.85 mg/kg; Anti-hypertensive effect R.E. (relative effectiveness) [3]: 1.0; LD50 [4]: 106 mg/kg
CC1CC(=O)NN=C1c1ccc(NC(=O)CCl)cc1 (stereo not shown) [Example 3, 6-(p-chloroacetylaminophenyl)-5-methyl-4,-dihydropyridaz-3-one]	0.11 (≈ 0.393 µM)	4,490	0.15	about as active as dihydralazine	2.27	
CCC(Br)C(=O)Nc1ccc(C2=NNC(=O)CC2C)cc1 (stereo not shown) [Example 9]	0.27 (≈ 0.767 µM)	1,830	1.49	slight	0.23	
CC(Br)C(=O)Nc1ccc(C2=NNC(=O)CC2C)cc1 (stereo not shown) [Example 16]	0.58 (≈ 1.71 µM)	852	0.4	about as active as dihydralazine	0.85	
CC(Cl)C(=O)Nc1ccc(C2=NNC(=O)CC2C)cc1 (stereo not shown) [Example 5, 6-[p-(2-chloropropionylamino)-phenyl]-5-methyl-4,5-dihydropyridaz-3-one]	0.031 (≈ 0.106 µM)	15,900	0.0079		43.04	ED20 [3]: 1.16 mg/kg; lowering of blood pressure ([3]; spontaneously hypertensive rats, oral dose of 1.2 mg/kg): about 20%; Anti-hypertensive effect R.E. (relative effectiveness) [3]: 5.9; anti-hypertensive power relative to dihydralazine [2]: 43 times; ED33 ([5]; rats, oral, ex vivo, Example 5 given 2 hours, acetylsalicylic acid 4 hours before measuring, dose which inhibits collagen-induced aggregation by 33%): 0.82 mg/kg; inhibition of thrombocyte aggregation after oral administration (in words) ([5]; oral, Table 2): very strong inhibition of thrombocyte aggregation; Inhibition of thrombocyte aggregation R.E. (relative effectiveness) ([5]; rats, oral, ex vivo): 163; acute toxicity (in words) [6]: somewhat less than that of acetylsalicyclic acid and dihydralazine; LD50 [4]: 231 mg/kg
CC1CC(=O)NN=C1c1ccc(NC(=O)C(C)(C)CBr)cc1 (stereo not shown) [Example 12]	0.44 (≈ 1.2 µM)	1,120	0.34	about as active as dihydralazine	1.00	
CC(Cl)C(=O)Nc1ccc(C2=NNC(=O)CC2)cc1 (stereo not shown) [Example 4, 6-[p-(2-chloropropionylamino)-phenyl]-4,5-dihydropyridaz-3-one]	0.27 (≈ 0.965 µM)	1,830	0.53	about as active as dihydralazine	0.64	
CC1CC(=O)NN=C1c1ccc(NC(=O)CCCCl)cc1 (stereo not shown) [Example 8, 6-[p-(4-chlorobutyrylamino)-phenyl]-5-methyl-4,5-dihydropyridaz-3-one]	1.7 (≈ 5.52 µM)	291	0.32	about as active as dihydralazine	1.06	
CC1CC(=O)NN=C1c1ccc(NC(=O)C(C)(C)CCl)cc1 (stereo not shown) [Example 11]	0.47 (≈ 1.46 µM)	1,050	0.61		0.56	
CC(=O)Oc1ccccc1C(=O)O [Acetylsalicylic acid, acetylsalicylic acid, reference compound]						EC50 ([1]; Homo sapiens): 494 µg/mL (≈ 2740 µM); ED33 ([5]; po): 134 mg/kg; Inhibition of thrombocyte aggregation R.E. (relative effectiveness) ([5]; rats, oral, ex vivo): 1.0; LD50 [4]: 167 mg/kg
O=C1CCC(c2ccc(NC(=O)CCl)cc2)=NN1 [Example 1, 6-(p-chloroacetylaminophenyl)-4,5-dihydropyridaz-3-one]	0.25 (≈ 0.941 µM)	1,980	0.37	about as active as dihydralazine	0.92	
CC1CC(=O)NN=C1c1ccc(NC(=O)C(C)(C)Br)cc1 (stereo not shown) [Example 17]	0.89 (≈ 2.53 µM)	555	2.93	slight	0.12	
CC1CC(=O)NN=C1c1ccc(NC(=O)CCCl)cc1 (stereo not shown) [Example 7, 6-[p-(3-chloropropionylamino)-phenyl]-5-methyl-4,5-dihydropyridaz-3-one]	0.3 (≈ 1.02 µM)	1,650	0.045		7.56	anti-hypertensive power relative to dihydralazine [2]: 7.6 times

Source: patent publication US4376771A, “6-(p-Acylaminophenyl)-4,5-dihydropyridaz-3-ones and therapeutic agents containing said compounds” (BASF Aktiengesellschaft, priority 1977, dated 1983)
